Experimental data reported in patent US20230147712A1, “OLEYL PHOSPHOCHOLINE CONTAINING GRANULATES” (Oblita Therapeutics BVBA, priority 2020, published 2023).

Test: Hygroscopicity of oleyl phosphocholine (water absorption)
Type: physicochemical
Conditions: exposed to 90% RH at 25° C.
Protocol: The development of solid dosage formulations of oleyl phosphocholine, and specifically the development of tablets, is complicated by the low melting point (56.3° C.), high hygroscopicity (absorbing 41.67 weight percent of water when exposed to 90% RH at 25° C.) and irregular particle size and shape of oleyl phosphocholine. These characteristics make it hard to obtain homogeneous, dry powders for tableting.

CCCCCCCC/C=C\CCCCCCCCOP(=O)([O-])OCC[N+](C)(C)C [oleyl phosphocholine]
hygroscopicity: water absorbed: 41.67 weight percent
